We go through eleven compounds from patent publication US20230201550A1, “SYSTEMS AND METHODS FOR TREATING PERSISTENT PAIN OF NEUROGENIC ORIGIN AND COMPLEX INJURY” (Nova Neura, LLC, priority 2020, published 2023).

One data set deals with rabbit ear.
Assay: not given
The conditions noted are these: rating out of 5 (x/5); cited from earlier work.
As for `O=C1CC[C@@H](C(=O)[O-])N1.[Na+]` [Sodium PCA, sodium L-pyroglutamate], the comedogenicity is 0/5. As to `CC12CCC(CC1=O)C2(C)C` (centres unmarked) [camphor, reference compound], the comedogenicity is on record as 2/5. Take `CCCCCCCCCCCCCCCCCCO` [cetearyl alcohol]: the comedogenicity is on record as 4/5. As to `CCCCCCCCCCCCCCCCCC(=O)OCC(O)CO` (centres unmarked) [glyceryl stearate], the comedogenicity is recorded as 3/5. Take `CCCCCCCCCCCCCC(=O)OC(C)C` [isopropyl myristate]: the comedogenicity is 5/5. In the case of `CCCCCCCCCCCCCCCC(=O)OCCCCCCCC` [octyl palmitate], the comedogenicity is given as 4/5.

As to `CC(C)=CCC/C(C)=C/CC/C(C)=C/CC/C=C(\C)CC/C=C(\C)CCC=C(C)C` [squalene], the comedogenicity is given as 1/5. Take caprylic/capric triglyceride: the comedogenicity is 0/5.

Regarding cyclomethicone, the comedogenicity was 0/5.

Test system in a further data set: not listed separately
The data set can be described thus: Stability and crystallization of the topical composition. The class given is physicochemical.
Settings: not given
From the text:
Through experimentation it was discovered that a combination of sugars (e.g. mannitol with dextrose) with or without the addition of corn syrup (also known as glucose-fructose) would impede or completely eliminate the crystallization process, allowing for a higher concentration of these ingredients in solution.
Take `OCC(O)CO` [Glycerin]: the “stability in solution / of the formula, shelf-life” value was “highly effective stabilizing measure”.

Still in this data set, the particulars now being: winter temperatures or refrigerator; combination of sugars.
With `OC[C@@H](O)[C@@H](O)[C@H](O)[C@H](O)CO` [Mannitol, reference compound], the “crystallization of Mannitol in cold environments” value is listed as “significantly mitigated or eliminated”.
